Measurements published in patent US20250221996A1, “HETEROCYCLIC COMPOUNDS, COMPOSITIONS THEREOF, AND METHODS OF TREATMENT THEREWITH” (BeiGene, Ltd., priority 2022, published 2025).

Tested on: pERK1/2(THR202/TYR204) level in AsPC-1 cells
Assay: pERK assay (HTRF) in AsPC-1 cell line
Format: cell-based
Settings: 2 h compound treatment
Method: AsPC-1 cell line was used in this study. Cells were maintained in RPMI-1640 supplemented with 10% fetal bovine serum (Thermo Fisher), 50 units/mL penicillin and streptomycin (Thermo Fisher) and kept at 37° C. in a humidified atmosphere of 5% CO2 in air. Cells were reinstated from frozen stocks that were laid down within 30 passages from the original cells purchased. 30000 cells per well were seeded into a 96-well plate and incubated overnight. Cells were treated with a 10-point dilution series. The final compound concentration is from 0 to 10 μM. After 2 h compound treatment, cells were lysed, and the pERK1/2(THR202/TYR204) level in the cell lysates was detected by HTRF kit (Cisbio). In brief, a total of 16 μL of cell lysate from each well of a 96-well plate was transferred to a 384-well white assay plate. Lysate from each well was incubated with 2 μL of Eu3+-cryptate (donor) labeled anti-phospho-ERK1/2 and 2 μL of D2 (acceptor) labeled anti-phospho-ERK1/2 antibodies (Cisbio) overnight in dark at room temperature. When donor and acceptor are in close proximity, excitation of the donor with laser triggers a Fluorescence Resonance Energy Transfer (FRET) towards the acceptor, which in turn fluoresces at 655 nm wavelength. FRET signals were measured using a PHERAstar FSX reader (BMG Labtech). IC50 determination was performed by fitting the curve of percent inhibition versus the log of the inhibitor concentration using Dotmatics.

| SMILES | IC50 |
| --- | --- |
| N#Cc1c(N)sc2c(F)ccc(-c3c(C(F)(F)F)cc4c(N5CC6CCC(C5)N6)nc(OCC5(C(F)F)CCOC5)nc4c3F)c12 (single isomer, unassigned) [Example 14-Isomer 4, 4-(4-(3,8-diazabicyclo[3.2.1]octan-3-yl)-2-((3-(difluoromethyl)tetrahydrofuran-3-yl)methoxy)-8-fluoro-6-(trifluoromethyl)quinazolin-7-yl)-2-amino-7-fluorobenzo[b]thiophene-3-carbonitrile] | 0.138 µM |
| N#Cc1c(N)sc2c(F)ccc(-c3c(C(F)(F)F)cc4c(N5CC6CCC(C5)N6)nc(OCC5(C#N)CCOCC5)nc4c3F)c12 (single isomer, unassigned) [Example 22-Isomer 1, 4-(((7-(2-amino-3-cyano-7-fluorobenzo[b]thiophen-4-yl)-4-(3,8-diazabicyclo[3.2.1]octan-3-yl)-8-fluoro-6-(trifluoromethyl)quinazolin-2-yl)oxy)methyl)tetrahydro-2H-pyran-4-carbonitrile] | > 10 µM |
| N#Cc1c(N)sc2c(F)ccc(-c3c(C(F)(F)F)cc4c(N5CC6CCC(C5)N6)nc(OCC5(C#N)CCOCC5)nc4c3F)c12 (single isomer, unassigned) [Example 22-Isomer 2, 4-(((7-(2-amino-3-cyano-7-fluorobenzo[b]thiophen-4-yl)-4-(3,8-diazabicyclo[3.2.1]octan-3-yl)-8-fluoro-6-(trifluoromethyl)quinazolin-2-yl)oxy)methyl)tetrahydro-2H-pyran-4-carbonitrile] | 0.072 µM |

Same assay, conditions: Homo sapiens, ASPC1, 2 h, 2 h compound treatment

| SMILES | IC50 |
| --- | --- |
| N#Cc1c(N)sc2c(F)ccc(-c3c(C(F)(F)F)cc4c(N5CC6CCC(C5)N6)nc(OCC5(C(F)F)CCOC5)nc4c3F)c12 (single isomer, unassigned) [Example 14-Isomer 3, 4-(4-(3,8-diazabicyclo[3.2.1]octan-3-yl)-2-((3-(difluoromethyl)tetrahydrofuran-3-yl)methoxy)-8-fluoro-6-(trifluoromethyl)quinazolin-7-yl)-2-amino-7-fluorobenzo[b]thiophene-3-carbonitrile] | 0.172 µM |
| N#Cc1c(N)sc2c(F)ccc(-c3c(C(F)(F)F)cc4c(N5CC6CCC(C5)N6)nc(OCC5(C(F)F)COC5)nc4c3F)c12 (single isomer, unassigned) [Example 48-Isomer 2, 4-(4-(3,8-diazabicyclo[3.2.1]octan-3-yl)-2-((3-(difluoromethyl)oxetan-3-yl)methoxy)-8-fluoro-6-(trifluoromethyl)quinazolin-7-yl)-2-amino-7-fluoro benzo[b]thiophene-3-carbonitrile] | 0.065 µM |
| COC1(COc2nc(N3CC4CCC(C3)N4)c3cc(C(F)(F)F)c(-c4ccc(F)c5sc(N)c(C#N)c45)c(F)c3n2)CCOC1 (centres unmarked) [Example 3-Mixture 1, 4-(4-(3,8-diazabicyclo[3.2.1]octan-3-yl)-8-fluoro-2-((3-methoxytetra hydrofuran-3-yl)methoxy)-6-(trifluoromethyl)quinazolin-7-yl)-2-amino-7-fluoro benzo[b]thiophene-3-carbonitrile] | 1.73 µM |
| N#Cc1c(N)sc2c(F)ccc(-c3c(C(F)(F)F)cc4c(N5CC6CCC(C5)N6)nc(OCC5(O)CCOC5)nc4c3F)c12 (centres unmarked) [Example 6, 4-(4-(3,8-diazabicyclo[3.2.1]octan-3-yl)-8-fluoro-2-((3-hydroxytetrahydrofuran-3-yl)methoxy)-6-(trifluoromethyl)quinazolin-7-yl)-2-amino-7-fluoro benzo[b]thiophene-3-carbonitrile] | 0.187 µM |
| N#Cc1c(N)sc2c(F)ccc(-c3c(C(F)(F)F)cc4c(N5CC6CCC(C5)N6)nc(OCC56CCC(C5)OC6)nc4c3F)c12 (centres unmarked) [Example 7, 4-(2-((2-oxabicyclo[2.2.1]heptan-4-yl)methoxy)-4-(3,8-diazabicyclo[3.2.1]octan-3-yl)-8-fluoro-6-(trifluoromethyl)quinazolin-7-yl)-2-amino-7-fluorobenzo[b]thiophene-3-carbonitrile] | 0.112 µM |
| COC(=O)N1CC(C)(COc2nc(N3CC4CCC(C3)N4)c3cc(C(F)(F)F)c(-c4ccc(F)c5sc(N)c(C#N)c45)c(F)c3n2)C1 [Example 8, methyl 3-(((7-(2-amino-3-cyano-7-fluorobenzo[h]thiophen-4-yl)-4-(3,8-diazabicyclo[3.2.1]octan-3-yl)-8-fluoro-6-(trifluoromethyl)quinazolin-2-yl)oxy)methyl)-3-methylazetidine-1-carboxylate] | 0.159 µM |
| CCC12CC(COc3nc(N4CC5CCC(C4)N5)c4cc(C(F)(F)F)c(-c5ccc(F)c6sc(N)c(C#N)c56)c(F)c4n3)(CO1)C2 [Example 12, 4-(4-(3,8-diazabicyclo[3.2.1]octan-3-yl)-2-((1-ethyl-2-oxabicyclo [2.1.1]hexan-4-yl)methoxy)-8-fluoro-6-(trifluoromethyl)quinazolin-7-yl)-2-amino-7-fluorobenzo[h]thiophene-3-carbonitrile] | 1.73 µM |
| CC(=O)N1CC(C)(COc2nc(N3CC4CCC(C3)N4)c3cc(C(F)(F)F)c(-c4ccc(F)c5sc(N)c(C#N)c45)c(F)c3n2)C1 [Example 13, 4-(2-((1-acetyl-3-methylazetidin-3-yl)methoxy)-4-(3,8-diazabicyclo[3.2.1]octan-3-yl)-8-fluoro-6-(trifluoromethyl)quinazolin-7-yl)-2-amino-7-fluorobenzo[b]thiophene-3-carbonitrile] | 0.146 µM |
| CC12CC(COc3nc(N4CC5CCC(C4)N5)c4ccc(-c5ccc(F)c6sc(N)c(C#N)c56)c(F)c4n3)(CO1)C2 [Example 15, 4-(4-(3,8-diazabicyclo[3.2.1]octan-3-yl)-8-fluoro-2-((1-methyl-2-oxabicyclo[2.1.1]hexan-4-yl)methoxy)quinazolin-7-yl)-2-amino-7-fluorobenzo[b] thiophene-3-carbonitrile] | 7.14 µM |
| CC12CC(COc3nc(N4C5CNCC4COC5)c4cc(C(F)(F)F)c(-c5ccc(F)c6sc(N)c(C#N)c56)c(F)c4n3)(CO1)C2 [Example 16, 4-(4-(3-oxa-7,9-diazabicyclo[3.3.1]nonan-9-yl)-8-fluoro-2-((1-methyl-2-oxabicyclo[2.1.1]hexan-4-yl)methoxy)-6-(trifluoromethyl)quinazolin-7-yl)-2-amino-7-fluorobenzo[b]thiophene-3-carbonitrile] | 0.143 µM |
| CC1(CC#N)CN(c2nc(N3CC4CCC(C3)N4)c3cc(C(F)(F)F)c(-c4ccc(F)c5sc(N)c(C#N)c45)c(F)c3n2)C1 [Example 17] | 0.561 µM |
| CC1(COc2nc(N3CC4CCC(C3)N4)c3cc(C(F)(F)F)c(-c4ccc(F)c5sc(N)c(C#N)c45)c(F)c3n2)COC1 [Example 18, 4-(4 (3,8-diazabicyclo[3.2.1]octan-3-yl)-8-fluoro-2-((3-methyloxetan-3-yl)methoxy)-6-(trifluoromethyl)quinazolin-7-yl)-2-amino-7-fluorobenzo [b]thiophene-3-carbonitrile] | 0.146 µM |
| N#Cc1c(N)sc2c(F)ccc(-c3c(C(F)(F)F)cc4c(N5CC6CCC(C5)N6)nc(OCC5(O)CCOCC5)nc4c3F)c12 [Example 19, 4-(4-(3,8-diazabicyclo[3.2.1]octan-3-yl)-8-fluoro-2-((4-hydroxytetrahydro-2H-pyran-4-yl)methoxy)-6-(trifluoromethyl)quinazolin-7-yl)-2-amino-7-fluorobenzo[b]thiophene-3-carbonitrile] | 0.326 µM |
| COC(=O)N1CC(COc2nc(N3CC4CCC(C3)N4)c3cc(C(F)(F)F)c(-c4ccc(F)c5sc(N)c(C#N)c45)c(F)c3n2)(OC)C1 [Example 20, methyl 3-(((7-(2-amino-3-cyano-7-fluorobenzo[b]thiophen-4-yl)-4-(3,8-diazabicyclo[3.2.1]octan-3-yl)-8-fluoro-6-(trifluoromethyl)quinazolin-2-yl)oxy)methyl)-3-methoxyazetidine-1-carboxylate] | 0.188 µM |
| N#Cc1c(N)sc2c(F)ccc(-c3c(C(F)(F)F)cc4c(N5CC6CCC(C5)N6)nc(OCC56COC(CO)(C5)C6)nc4c3F)c12 [Example 21, 4-(4-(3,8-diazabicyclo[3.2.1]octan-3-yl)-8-fluoro-2-((1-(hydroxymethyl)-2-oxabicyclo[2.1.1]hexan-4-yl)methoxy)-6-(trifluoromethyl)quinazolin-7-yl)-2-amino-7-fluorobenzo[b]thiophene-3-carbonitrile] | 0.76 µM |
| N#Cc1c(N)sc2c(F)ccc(-c3c(C(F)(F)F)cc4c(N5CC6CCC(C5)N6)nc(OCC5CCOCC5)nc4c3F)c12 [Example 23, 4-(4-(3,8-diazabicyclo[3.2.1]octan-3-yl)-8-fluoro-2-((tetrahydro-2H-pyran-4-yl)methoxy)-6-(trifluoromethyl)quinazolin-7-yl)-2-amino-7-fluorobenzo[b]thiophene-3-carbonitrile] | 0.334 µM |
| Cn1ccnc1N1CC(COc2nc(N3CC4CCC(C3)N4)c3cc(C(F)(F)F)c(-c4ccc(F)c5sc(N)c(C#N)c45)c(F)c3n2)C1 [Example 24, 4-(4-(3,8-diazabicyclo[3.2.1]octan-3-yl)-8-fluoro-2-((1-(1-methyl-1H-imidazol-2-yl)azetidin-3-yl)methoxy)-6-(trifluoromethyl)quinazolin-7-yl)-2-amino-7-fluorobenzo[b]thiophene-3-carbonitrile] | 0.2 µM |
